Results published in patent US6288103A, “Indole derivatives as MCP-1 receptor antagonists” (Zeneca Limited, priority 1997, dated 2001).

Target: T1, hMCP-1 receptor, MCP-1 receptor B (CCR2B) (Homo sapiens, UniProt P41597)
T1 construct: expressed in transfected cells; host or cells: CHO-K1 (clone 7, CHO-CCR2B), membrane fragments
T1 sequence (P41597 1-360 isoform P41597-2): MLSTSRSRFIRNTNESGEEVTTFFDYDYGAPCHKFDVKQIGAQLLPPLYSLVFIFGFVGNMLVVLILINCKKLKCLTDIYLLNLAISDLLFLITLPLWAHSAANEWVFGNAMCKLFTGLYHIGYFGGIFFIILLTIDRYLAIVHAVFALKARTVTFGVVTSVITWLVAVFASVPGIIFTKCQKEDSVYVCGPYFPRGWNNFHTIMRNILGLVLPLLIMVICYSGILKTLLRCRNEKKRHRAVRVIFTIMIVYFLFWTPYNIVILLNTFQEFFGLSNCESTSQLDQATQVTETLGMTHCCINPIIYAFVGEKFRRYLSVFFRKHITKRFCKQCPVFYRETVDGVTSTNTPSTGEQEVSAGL
Experiment: hMCP-1 receptor-binding assay
Conditions: competition with 100 pM 125I-labelled MCP-1, CHO-CCR2B cell membranes, concentration range 0.1-200 μM
From the text: a) hMCP-1 Receptor-binding Assay
The MCP-1 receptor B (CCR2B) cDNA was cloned by PCR from THP-1 cell RNA using suitable oligonucleotide primers based on the published MCP-1 receptor sequences (Charo et al., 1994, Proc. Natl. Acad. Sci. USA, 91, 2752). The resulting PCR products were cloned into vector PCR-II™ (InVitrogen, San Diego, Calif.). Error free CCR2B cDNA was subcloned as a Hind III-Not I fragment into the eukaryotic expression vector pCDNA3 (In Vitrogen) to generate pCDNA3/CC-CKR2A and pCDNA3/CCR2B respectively.
Linearised pCDNA3/CCR2B DNA was transfected into CHO-K1 cells by calcium phosphate precipitation (Wigler et al., 1979, Cell, 16, 777). Transfected cells were selected by the addition of Geneticin Sulphate (G418, Gibco BRL) at 1 mg/ml, 24 hours after the cells had been transfected. Preparation of RNA and Northern blotting were carried out as described previously (Needham et al., 1995, Prot. Express. Purific., 6, 134). CHO-K1 clone 7 (CHO-CCR2B) was identified as the highest MCP-1 receptor B expressor.
CHO-CCR2B cells were grown in DMEM supplemented with 10% foetal calf serum, 2 mM glutamine, 1× Non-Essential Amino Acids, 1× Hypoxanthine and Thymidine Supplement and Penicillin-Streptomycin (at 50 μg streptomycin/mi, Gibco BRL). […]

## O=C(O)c1cc2ccccc2n1S(=O)(=O)c1ccc(Cl)c(Cl)c1 [Example 2.01, N-(3,4-Dichlorophenylsulphonyl)indole-2-carboxylic acid]
  IC50: 10 µM
